What all share (format): tissue-based
Experiment [1] concerns the target Potassium-transporting ATPase (Sus scrofa, UniProt P19156). Briefly: The compound was tested for its inhibitory activity against H+/K+ ATPase by using hog stomach membrane fractions (pH 6.4).
The target of experiment [2] is T1, Potassium-transporting ATPase (Sus scrofa) (UniProt P18434+P19156). Briefly: The compound was tested for its inhibitory activity against H+/K+ ATPase by using hog stomach membrane fractions (pH 6.4) at 4 uM.
For experiment [3], the target named is T1, Potassium-transporting ATPase (Sus scrofa). The experiment is described as follows: The compound was tested for its inhibitory activity against H+/K+ ATPase by using hog stomach membrane fractions at 10 uM.
Experiment [4] has the same target. Briefly: The compound was tested for its inhibitory activity against H+/K+ ATPase by using hog stomach membrane fractions at 4 uM.
For experiment [5] the target is unchanged. The experiment is described as follows: The compound was tested for its inhibitory activity against H+/K+ ATPase by using hog stomach membrane fractions at 8 uM.

Sequence of Potassium-transporting ATPase (P18434 whole entry): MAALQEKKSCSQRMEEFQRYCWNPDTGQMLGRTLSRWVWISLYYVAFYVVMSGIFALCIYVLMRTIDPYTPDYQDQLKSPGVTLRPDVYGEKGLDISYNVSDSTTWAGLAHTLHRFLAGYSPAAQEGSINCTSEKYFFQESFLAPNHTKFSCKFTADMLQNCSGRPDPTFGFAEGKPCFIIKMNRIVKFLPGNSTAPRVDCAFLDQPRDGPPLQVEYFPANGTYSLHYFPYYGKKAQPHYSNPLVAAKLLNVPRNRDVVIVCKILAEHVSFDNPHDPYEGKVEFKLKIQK
Sequence of Potassium-transporting ATPase (P19156 whole entry): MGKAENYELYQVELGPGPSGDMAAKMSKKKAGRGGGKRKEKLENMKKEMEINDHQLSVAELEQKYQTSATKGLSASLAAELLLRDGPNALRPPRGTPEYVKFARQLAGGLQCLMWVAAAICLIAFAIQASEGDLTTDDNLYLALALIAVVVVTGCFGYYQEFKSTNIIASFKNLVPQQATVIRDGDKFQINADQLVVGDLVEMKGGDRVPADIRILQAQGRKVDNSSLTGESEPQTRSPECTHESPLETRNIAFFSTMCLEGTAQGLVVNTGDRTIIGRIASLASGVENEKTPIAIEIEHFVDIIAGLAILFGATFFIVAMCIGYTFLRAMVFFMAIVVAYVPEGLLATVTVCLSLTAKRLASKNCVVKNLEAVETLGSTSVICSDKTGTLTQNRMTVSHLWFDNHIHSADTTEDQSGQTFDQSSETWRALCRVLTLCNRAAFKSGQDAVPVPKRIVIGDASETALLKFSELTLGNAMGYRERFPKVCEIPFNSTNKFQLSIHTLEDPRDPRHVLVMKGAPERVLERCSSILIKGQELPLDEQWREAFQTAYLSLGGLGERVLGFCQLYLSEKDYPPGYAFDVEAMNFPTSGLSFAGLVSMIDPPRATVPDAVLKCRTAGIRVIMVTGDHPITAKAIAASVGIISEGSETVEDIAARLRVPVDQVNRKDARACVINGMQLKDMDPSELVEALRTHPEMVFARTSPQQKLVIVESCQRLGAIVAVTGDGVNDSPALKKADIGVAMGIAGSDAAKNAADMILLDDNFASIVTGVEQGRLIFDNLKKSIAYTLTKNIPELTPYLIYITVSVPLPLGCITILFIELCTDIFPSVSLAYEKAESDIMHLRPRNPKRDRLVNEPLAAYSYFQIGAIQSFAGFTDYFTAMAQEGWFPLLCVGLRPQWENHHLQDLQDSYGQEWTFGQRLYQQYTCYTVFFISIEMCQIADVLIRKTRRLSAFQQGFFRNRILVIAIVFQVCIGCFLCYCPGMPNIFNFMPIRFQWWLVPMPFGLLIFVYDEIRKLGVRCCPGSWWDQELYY

As for `Cc1cnc(/C(=C\c2cccc3ccccc23)CO)cc1OCc1ccccc1O`, the half-maximal inhibitory concentration (IC50) – broadly, the concentration that inhibits the measured activity by half – in experiment [1] was 900 nM. For `Cc1cnc(C(CO)Cc2cccc3ccccc23)cc1OCC(C)(C)C` (stereo unspecified), in experiment [1], half-maximal inhibition (IC50) was put at 600 nM. This IC50 lies about 1.5-fold lower than the previous one. In turn, `Cc1cnc(C(CO)Cc2cccc3ccccc23)cc1OC1CCCCC1` (stereo unspecified) registered an IC50 in experiment [1] of 500 nM. Take `CC#CCOc1cc(C(CO)Cc2cccc3ccccc23)ncc1C` (stereo unspecified): in experiment [2], the inhibition (as a rule, the drop in the measured response relative to a control, in per cent) turned out to be 22%. The compound `Cc1cnc(C(CO)Cc2cccc3ccccc23)cc1Oc1ccccc1` (stereo unspecified) yielded an inhibition in experiment [3] of 36%. In experiment [1], `CC(C)=CCOc1cc(C(CO)Cc2cccc3ccccc23)ncc1C` (stereo unspecified) had an IC50 of 3000 nM. Consider `COc1ccccc1COc1cc(/C(=C\c2cccc3ccccc23)CO)ncc1C`, for which 1700 nM corresponded to half-maximal inhibition in experiment [1] (IC50). Compared with the last compound, the IC50 is about 1.8-fold lower. `Cc1cnc(C(CO)Cc2cccc3ccccc23)cc1OCC1CCCCC1` (stereo unspecified) showed an IC50 in experiment [1] of 3100 nM. Compared with the last compound, the IC50 is about 1.8-fold higher. As to `Cc1cnc(C(CO)Cc2cccc3ccccc23)cc1OCc1ccccn1` (stereo unspecified), in experiment [4], the inhibition is 21%. Consider `Cc1cnc(C(CO)Cc2cccc3ccccc23)cc1OCCOc1ccccc1` (stereo unspecified), for which the inhibition in experiment [5] was determined as 27%. As to `Cc1cnc(C(CO)Cc2cccc3ccccc23)cc1OCc1ccccc1O` (stereo unspecified), the half-inhibitory concentration (IC50) in experiment [1] worked out at 1800 nM.

(Values after ChEMBL document CHEMBL1151092, “Novel 4-substituted pyridine derivatives: Practical derivatization and biological profiles of reversible inhibitors” (Bioorg Med Chem Lett, 1997).)
